Laboratory results: PubChem BioAssay AID248 (DTP/NCI, 2004)
Inconclusive results and toxic doses are left out. No stated cut-off is given here; in the data, active means T/C of 150% or more; inactive means T/C below 125%.

Tested on: L1210 leukemia ip in BDF1 mice, survival T/C
Test: NCI In Vivo Anticancer Drug Screen. Data for tumor model L1210 Leukemia (intraperitoneal) in B6D2F1 (BDF1) mice
Details: endpoint: mean survival time, higher = longer survival
Summary of the method: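 Antitumor effect is assessed in tumor-bearing animals. Survival in the compound arm is compared with a vehicle-dosed control arm and expressed as their quotient.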

[1] = dose: 50.0 mg/kg/injection, schedule: Q01DX001 (ip), vehicle: carboxymethylcellulose (CMC)
[2] = dose: 100.0 mg/kg/injection, schedule: Q01DX001 (ip), vehicle: carboxymethylcellulose (CMC)
[3] = dose: 200.0 mg/kg/injection, schedule: Q01DX001 (ip), vehicle: carboxymethylcellulose (CMC)
[4] = dose: 400.0 mg/kg/injection, schedule: Q01DX001 (ip), vehicle: carboxymethylcellulose (CMC)

Measured: T/C

CCCCSP(=O)(Cc1ccccc1)SCCCC
inactive: dose: 12.5 mg/kg/injection, schedule: Q04DX003 (ip), vehicle: Klucel (hydroxypropylcellulose) (HPC) 102 % of control | dose: 25.0 mg/kg/injection, schedule: Q04DX003 (ip), vehicle: Klucel (hydroxypropylcellulose) (HPC) 95 % of control | dose: 50.0 mg/kg/injection, schedule: Q04DX003 (ip), vehicle: Klucel (hydroxypropylcellulose) (HPC) 97 % of control

NC(=O)C(N)CSCc1ccccc1 (centres undefined)
inactive: dose: 50.0 mg/kg/injection, schedule: Q01DX009 (ip), vehicle: Klucel (hydroxypropylcellulose) (HPC) 95 % of control | dose: 100.0 mg/kg/injection, schedule: Q01DX009 (ip), vehicle: Klucel (hydroxypropylcellulose) (HPC) 95 % of control | dose: 100.0 mg/kg/injection, schedule: Q01DX009 (ip), vehicle: saline 89 % of control | dose: 200.0 mg/kg/injection, schedule: Q01DX009 (ip), vehicle: Klucel (hydroxypropylcellulose) (HPC) 100 % of control | dose: 200.0 mg/kg/injection, schedule: Q01DX009 (ip), vehicle: saline 91 % of control | dose: 400.0 mg/kg/injection, schedule: Q01DX009 (ip), vehicle: saline 91 % of control

Nc1ccc2c(c1)C(=O)c1c(F)ccc(F)c1-2
inactive: [1] 98 % of control | [2] 96 % of control | [3] 104 % of control | [4] 115 % of control

CCOC(=O)C1=C(C)NC(C)=C(C(=O)OCC)C1c1ccc(Cl)cc1
inactive: dose: 100.0 mg/kg/injection, schedule: Q04DX003 (ip), vehicle: saline with Tween-80 98 % of control | dose: 200.0 mg/kg/injection, schedule: Q04DX003 (ip), vehicle: saline with Tween-80 93 % of control | dose: 400.0 mg/kg/injection, schedule: Q04DX003 (ip), vehicle: saline with Tween-80 88 % of control

CN(C)CCC=C1c2ccccc2-c2ccccc21
inactive: dose: 15.0 mg/kg/injection, schedule: Q01DX015 (ip), vehicle: carboxymethylcellulose (CMC) 88 % of control | dose: 25.0 mg/kg/injection, schedule: Q01DX009 (ip), vehicle: saline with Tween-80 105 % of control | dose: 30.0 mg/kg/injection, schedule: Q01DX015 (ip), vehicle: carboxymethylcellulose (CMC) 92 % of control | [1] 93 % of control | dose: 50.0 mg/kg/injection, schedule: Q01DX009 (ip), vehicle: saline with Tween-80 96 % of control | dose: 60.0 mg/kg/injection, schedule: Q01DX015 (ip), vehicle: carboxymethylcellulose (CMC) 92 % of control | [2] 104 % of control | dose: 100.0 mg/kg/injection, schedule: Q01DX009 (ip), vehicle: saline with Tween-80 111 % of control | dose: 100.0 mg/kg/injection, schedule: Q04DX003 (ip), vehicle: saline 115 % of control | dose: 120.0 mg/kg/injection, schedule: Q01DX015 (ip), vehicle: carboxymethylcellulose (CMC) 92 % of control | [3] 98 % of control | [4] 101 % of control

O=c1c2ncn(C3OC(CO)C(O)C3O)c2nc2n1N=CC(O)N2 (centres undefined)
inactive: dose: 100.0 mg/kg/injection, schedule: Q01DX005 (ip), vehicle: saline 120 % of control | dose: 200.0 mg/kg/injection, schedule: Q01DX005 (ip), vehicle: saline 120 % of control

CC(NP1(=O)OCC(C)(N=Cc2ccccc2)CO1)c1ccccc1 (centres undefined)
inactive: dose: 50.0 mg/kg/injection, schedule: Q01DX001 (ip), vehicle: saline 104 % of control | dose: 100.0 mg/kg/injection, schedule: Q01DX001 (ip), vehicle: saline 98 % of control | dose: 200.0 mg/kg/injection, schedule: Q01DX001 (ip), vehicle: saline 104 % of control | dose: 400.0 mg/kg/injection, schedule: Q01DX001 (ip), vehicle: saline 95 % of control
